Laboratory results as given in PMC4440585 (Biochemistry, 2015).

Biological target: mitochondrial complex I (Rattus norvegicus, UniProt A6K8N6+P03889+Q641Y2)
Assay: NADH oxidation at […] nm, NADH:ubiquinone-1 activity of solubilized mitochondria
Assay type: biochemical
Settings: read-out: % inhibition at 25 mM

For `CN(C)C(=N)NC(=N)N` [metformin], which inhibition at 25000 µM is on record?
Its inhibition at 25000 µM is 12.1%.
